Test system: cyanamide
Test: Utilization of cyanamide in rich YPD medium by S. cerevisiae strains
Type: cell-based
Settings: 10 mM cyanamide in YPD medium
Protocol: Optical density of NS100 and NS101 grown in rich YPD medium with 100 μg/mL hydgromycin and with and without 10 mM cyanamide. NS100 and NS101 were grown overnight in YNB medium, and inoculated at 3.33% v/v. […] Data are averages of 3 replicate wells in a 96 well plate; 150 μL per well. 30° C., YPD medium or YPD medium with 10 mM cyanamide. Inoculation was with 5 μL of culture pregrown for 24 hrs in the YNB medium with urea as nitrogen source.

N#CN [cyanamide]
effect of cyanamide on microbial growth: act as a deterrent for microbial growth
